Measurements published in patent publication US20130189255A1, “FUSIONS AND CONJUGATES OF INSULINOTROPIC AGENTS” (GLAXO GROUP LIMITED, priority 2008, published 2013).
pKd: −log10 of the molar value. Where “and” joins values, the source holds several entries; their conditions need not be identical. Equal entries are not always repeated. Marks after values point to notes of the source that are not given here.

Columns and labels:
[1] = rat, in vivo
Method: This was followed by ion exchange chromotography on a Resource S column using a 0-1M salt gradient in 20 mM acetate pH5.0. Fractions containing the desired protein were then combined and buffer exchanged into 100 mM NaCl, 20 mM citrate pH6.2. Protein was filter sterilised, buffer exchanged and Qced prior to use in vivo.
Calculated plasma levels were then used to fit pharmacokinetic parameters using WinNonLin software. Half life after subcutaneous and intravenous administration and bioavailability is outlined in the table 8 below. It was concluded from the results that all three compounds show desirable pharmacokinetic parameters in rat.

[2] = system: db/db mice; experiment: Oral glucose tolerance test (OGTT) in db/db mouse model of type II diabetes; type: in vivo
Description: Animals were sorted by decreasing glucose levels three days prior to the start of the experiment and then blocked. One animal within each block was then assigned to each of the 26 study groups. This ensured similar mean starting glucose level in each of the study groups.

[3] = system: cynomolgus monkey; experiment: PD in cynomolgus monkey: biscuit consumption; type: in vivo, cynomolgus monkey (Macaca fascicularis)
Description: Protein was extensively QCed (including SDS-PAGE, mass spec, activity assay:GLP-1R-BA, pH check, osmolarity check), filter sterilised and endotoxin removed. Protein with confimed low endotoxin (<0.05 EU/mg protein) was then used for the in vivo study. Six female cynomolgus monkeys (Macaca fascicularis; Charles River Laboratories BRF, Houston, Tex., Primate Products, Miami, Fla. and/or Covance Research Products, Inc., Alice, Tex.) were used in this study. The monkeys were approximately 2 to 9 years old (with a body weight range of approximately 2 to 5 kilograms) at initiation of dosing. The monkeys were housed individually in stainless-steel cages in an environmentally controlled room(s) (64 F to 84 F; 30 to 70% relative humidity) with a 12-hour light/dark cycle. The female monkeys were offered approximately 6 biscuits twice daily of Monkey Diet #5038 (PMI Nutrition International, Richmond, Ind.) and a daily allotment of fresh fruit. […] Dose was at 0.1 mg/Kg. On the days of dosing, the first feeding occurred within approximately 1 hour post dose for each monkey (extended up to 2.5 hours post dose if study-related procedures required animals to be out of their local housing for an extended period of time). The second feeding was no sooner then two hours following the first feeding. For the purpose of environmental enrichment, additional fruit, legume and/or vegetable (e.g., grapes, baby carrots, peanuts) was provided to each monkey at or around the time of viability check or as a method of reward after acclimation or study-related procedures. Filtered tap water (supplied by Aqua Pennsylvania, Inc. and periodically analyzed) was available ad libitum. Plasma samples (approx 2 ml) were collected from the femoral vessel at predose (0 hour) and nominally at 5 minutes (iv group only), 0.5, 4, 8, 24, 48, 96, 144, 192, 288, 336, 504 and 672 hours after dosing. (PK samples from one of the animals in the iv dose group were only collected to 24 h so this animal has been excluded from the PK fitting). Analysis of samples was by mass spectrometry, and fitting of the data was using WinNonLin fitting software. PK parameters were as follows for iv administration (n=2): T1/2 67 h, MRT 46 h, Vz 327 ml/Kg and Cl 3.3 ml/hr/Kg; and for sc administration (n=3): T1/2 68 h, MRT 98 h, Vz 306 ml/Kg and Cl 3.1 ml/hr/Kg. Bioavailability was calculated as 99%. A PK study was conducted in cynomolgus monkey as described above. The principal aim of this study was to determine the pharmacokinetic parameters for DAT0115 in cynomolgus monkey (as described in the previous example), but a secondary aim was to obtain an indication of the efficacy of the DAT0115 compound in the monkeys (without sufficient power in the study for statistical significance). To achieve this secondary aim, biscuit consumption by the monkeys was monitored during the course of the study.

[4] = molecular target: CSA (Macaca fascicularis, UniProt A2V9Z4); experiment: Surface plasmon resonance (Biacore, streptavidin chip with biotinylated serum albumin), CSA; type: binding, cynomolgus monkey; conditions: Biacore SA chip, HBS-EP buffer; read-out: Affinity (KD) to CSA
Method: (§1) The analysis was performed using a streptavidin chip (SA) coated with biotinylated serum albumin. 200-1000 resonance units (RUs) of each serum albumin was immobilised on the chip. Flow cell 1 was uncoated, flow cell 2 was coated with HSA, flow cell 3 was coated with RSA and flow cell 4 was coated with CSA. A range of concentrations of fusion was prepared (in the range 15.6 nM to 2 μM by dilution into BIACORE HBS-EP buffer (0.01M HEPES, pH7.4, 0.15M NaCl, 3 mM EDTA, 0.005% surfactant P20) and flowed across the BIACORE chip.
(§2) Affinity (KD) was calculated from the BIACORE traces by fitting on-rate and off-rate curves to traces generated by concentrations of dAb in the region of the KD.

[5] = molecular target: HSA (Homo sapiens, UniProt P02768); type: binding
Method: as §1, §2

Sequence of CSA (A2V9Z4 25-608): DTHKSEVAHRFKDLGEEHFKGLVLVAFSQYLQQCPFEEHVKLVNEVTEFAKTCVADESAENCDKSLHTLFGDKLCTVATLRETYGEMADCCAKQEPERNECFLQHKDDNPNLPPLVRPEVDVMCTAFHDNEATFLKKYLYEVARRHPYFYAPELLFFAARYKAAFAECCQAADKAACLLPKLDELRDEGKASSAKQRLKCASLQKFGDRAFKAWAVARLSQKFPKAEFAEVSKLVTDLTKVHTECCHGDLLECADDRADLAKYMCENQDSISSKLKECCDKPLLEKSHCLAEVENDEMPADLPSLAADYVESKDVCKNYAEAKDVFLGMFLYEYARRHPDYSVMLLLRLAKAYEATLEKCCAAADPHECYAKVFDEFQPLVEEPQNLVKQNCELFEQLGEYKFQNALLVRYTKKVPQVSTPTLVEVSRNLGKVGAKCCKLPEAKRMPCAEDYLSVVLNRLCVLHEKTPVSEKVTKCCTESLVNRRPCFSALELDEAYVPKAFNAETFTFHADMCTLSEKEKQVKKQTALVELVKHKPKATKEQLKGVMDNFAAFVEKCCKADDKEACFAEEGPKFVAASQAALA

Substance: Exendin 4 (G4S linker)3 DOM7h-14 dAb fusion [DAT0115]
- Bioavailability [1]: 81%
- Half-life after intravenous administration ([1]; iv, 0.3 mg/kg): 4.9 h
- timepoints out to which glucose AUC was significantly decreased compared to vehicle ([2]; 0.1 mg/Kg and 0.3 mg/Kg doses sc): ≤ 24 h
- percentage reduction in glucose AUC compared to vehicle ([2]; 0.1 mg/kg sc, OGTT +5 hrs relative to dosing): 60%*
- percentage reduction in glucose AUC compared to vehicle ([2]; 0.1 mg/kg sc, OGTT +24 hrs): 36%*
- percentage reduction in glucose AUC compared to vehicle ([2]; 0.1 mg/kg sc, OGTT +48 hrs): 28%
- percentage reduction in glucose AUC compared to vehicle ([2]; 0.1 mg/kg sc, OGTT +72 hrs): 16%
- percentage reduction in glucose AUC compared to vehicle ([2]; 0.1 mg/kg sc, OGTT +96 hrs): −12%
- percentage reduction in glucose AUC compared to vehicle ([2]; 0.3 mg/kg sc, OGTT +24 hrs): 59%*
- percentage reduction in glucose AUC compared to vehicle ([2]; 0.3 mg/kg sc, OGTT +48 hrs): 26%
- percentage reduction in glucose AUC compared to vehicle ([2]; 0.3 mg/kg sc, OGTT +72 hrs): 26%
- timepoints out to which glucose AUC was significantly decreased compared to vehicle ([2]; 1 mg/Kg dose sc): ≤ 72 h
- percentage reduction in glucose AUC compared to vehicle ([2]; 1 mg/kg sc, OGTT +5 hrs): 76%*
- percentage reduction in glucose AUC compared to vehicle ([2]; 1 mg/kg sc, OGTT +24 hrs): 50%*
- percentage reduction in glucose AUC compared to vehicle ([2]; 1 mg/kg sc, OGTT +48 hrs): 37%*
- percentage reduction in glucose AUC compared to vehicle ([2]; 1 mg/kg sc, OGTT +72 hrs): 41%*
- percentage reduction in glucose AUC compared to vehicle ([2]; 1 mg/kg sc, OGTT +96 hrs): 12%
- Biscuits consumed daily ([3]; 0.1 mg/Kg (iv), Day 1 (dosing day), individual monkey): 0 (2×) and 6
- Biscuits consumed daily ([3]; 0.1 mg/Kg (iv), Day 2, individual monkey): 0 and 3 and 1
- Biscuits consumed daily ([3]; 0.1 mg/Kg (iv), Day 3, individual monkey): 0 (2×) and 9
- Biscuits consumed daily ([3]; 0.1 mg/Kg (iv), Day 4, individual monkey): 0 and 12 and 4
- Biscuits consumed daily ([3]; 0.1 mg/Kg (iv), Day 5, individual monkey): 1 and 12 and 6
- Biscuits consumed daily ([3]; 0.1 mg/Kg (iv), Day 6, individual monkey): 6 and 12 and 10
- Biscuits consumed daily ([3]; 0.1 mg/Kg (iv), Day 7, individual monkey): 6 and 12 and 11
- Biscuits consumed daily ([3]; 0.1 mg/Kg (iv), Day −1 (pre-dose), individual monkey): 12
- Biscuits consumed daily ([3]; 0.1 mg/Kg (iv), Day −2 (pre-dose), individual monkey): 12
- Biscuits consumed daily ([3]; 0.1 mg/Kg (sc), Day 1 (dosing day), individual monkey): 5 and 12 and 11
- Biscuits consumed daily ([3]; 0.1 mg/Kg (sc), Day 2, individual monkey): 0 (2×) and 12
- Biscuits consumed daily ([3]; 0.1 mg/Kg (sc), Day 3, individual monkey): 4 and 2 and 11
- Biscuits consumed daily ([3]; 0.1 mg/Kg (sc), Day 4, individual monkey): 11 and 12 (2×)
- Biscuits consumed daily ([3]; 0.1 mg/Kg (sc), Day 5, individual monkey): 7 and 12 and 8
- Biscuits consumed daily ([3]; 0.1 mg/Kg (sc), Day 6, individual monkey): 11 and 12 (2×)
- Biscuits consumed daily ([3]; 0.1 mg/Kg (sc), Day 7, individual monkey): 12
- Biscuits consumed daily ([3]; 0.1 mg/Kg (sc), Day −1 (pre-dose), individual monkey): 12
- Biscuits consumed daily ([3]; 0.1 mg/Kg (sc), Day −2 (pre-dose), individual monkey): 12
- food consumption in the days following dosing ([3]; 0.1 mg/Kg iv or sc, all monkeys, not powered for significance): trend towards reduction in food consumption
- pKd [4]: 5.70
- pKd [5]: 6.22
